{
  "source": "ChEMBL document CHEMBL3886816",
  "about": "“Substituted 5-(3,5-dimethylisoxazol-4-yl)indoline-2-ones” (2016)",
  "key": {"[1]": {"target": "Bromodomain-containing protein 4 (Homo sapiens, UniProt O60885)", "test": "(§1) Time-Resolved Fluorescence Resonance Energy Transfer (TR-FRET) Assay: The assay was carried out in binding mixtures of the bromodomain protein, 0-10 μM compounds and tetra-acetylated histone peptide (SGRGAC.KGGAC.KGLGAC.KGGAAC.[…]-biotin) in buffer containing 25 mM HEPES pH 7.5, 100 mM NaCl, 0.1% BSA, 0.05% CHAPS, and detection reagents. […] Upon further incubation for 1 hr, the TR-FRET signals were recorded on a BMG PHERAstar FS instrument."}, "[2]": {"target": "Bromodomain-containing protein 3 (Homo sapiens, UniProt Q15059)", "sequence (Q15059 whole entry)": "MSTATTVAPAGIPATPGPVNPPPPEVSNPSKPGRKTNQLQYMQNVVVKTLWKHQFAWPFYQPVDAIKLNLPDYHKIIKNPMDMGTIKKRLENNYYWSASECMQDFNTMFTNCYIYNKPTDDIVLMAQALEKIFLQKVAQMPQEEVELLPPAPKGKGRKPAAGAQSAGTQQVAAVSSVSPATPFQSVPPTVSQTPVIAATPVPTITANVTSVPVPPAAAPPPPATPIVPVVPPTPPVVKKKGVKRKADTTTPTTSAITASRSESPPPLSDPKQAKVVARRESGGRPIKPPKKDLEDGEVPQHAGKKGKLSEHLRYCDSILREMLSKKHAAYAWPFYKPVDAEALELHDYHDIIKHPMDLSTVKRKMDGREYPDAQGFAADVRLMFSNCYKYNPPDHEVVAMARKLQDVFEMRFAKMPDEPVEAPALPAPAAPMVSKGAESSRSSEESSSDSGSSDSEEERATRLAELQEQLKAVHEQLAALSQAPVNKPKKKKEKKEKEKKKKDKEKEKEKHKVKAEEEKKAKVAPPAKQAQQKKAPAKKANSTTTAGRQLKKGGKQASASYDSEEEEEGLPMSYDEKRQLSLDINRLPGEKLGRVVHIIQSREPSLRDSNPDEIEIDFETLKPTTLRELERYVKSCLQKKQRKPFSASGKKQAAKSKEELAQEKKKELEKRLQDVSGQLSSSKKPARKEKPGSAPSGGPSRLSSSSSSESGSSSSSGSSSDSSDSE", "test": "as §1"}, "[3]": {"target": "Bromodomain-containing protein 2 (Homo sapiens, UniProt P25440)", "sequence (P25440 whole entry)": "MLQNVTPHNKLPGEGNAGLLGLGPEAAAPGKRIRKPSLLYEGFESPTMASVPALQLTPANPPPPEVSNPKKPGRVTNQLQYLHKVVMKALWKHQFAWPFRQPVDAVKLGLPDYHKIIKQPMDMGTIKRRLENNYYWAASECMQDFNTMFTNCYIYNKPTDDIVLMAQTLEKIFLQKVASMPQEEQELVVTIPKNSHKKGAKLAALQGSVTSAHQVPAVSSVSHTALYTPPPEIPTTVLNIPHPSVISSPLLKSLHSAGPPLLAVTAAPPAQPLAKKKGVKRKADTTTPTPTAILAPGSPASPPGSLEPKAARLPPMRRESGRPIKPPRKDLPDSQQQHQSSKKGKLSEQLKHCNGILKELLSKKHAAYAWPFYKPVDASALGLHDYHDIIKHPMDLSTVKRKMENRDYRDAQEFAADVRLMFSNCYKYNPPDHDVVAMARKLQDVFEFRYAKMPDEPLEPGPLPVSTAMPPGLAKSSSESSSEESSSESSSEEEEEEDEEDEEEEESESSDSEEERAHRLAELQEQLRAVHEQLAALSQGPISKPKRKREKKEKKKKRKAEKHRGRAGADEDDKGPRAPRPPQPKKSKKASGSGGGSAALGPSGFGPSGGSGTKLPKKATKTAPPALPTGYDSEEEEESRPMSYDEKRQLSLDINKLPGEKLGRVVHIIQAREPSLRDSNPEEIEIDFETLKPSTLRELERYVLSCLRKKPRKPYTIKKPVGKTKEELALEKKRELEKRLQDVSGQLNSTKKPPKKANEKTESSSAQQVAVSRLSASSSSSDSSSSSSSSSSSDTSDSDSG", "test": "as §1"}, "[4]": {"target": "Bromodomain testis-specific protein (Homo sapiens, UniProt Q58F21)", "test": "as §1"}},
  "data": [
    {"smiles": "Cc1noc(C)c1-c1ccc2c(c1)C(C1CCCCC1)(N1CCN(C)CC1)C(=O)N2", "note": "(stereo not given)", "values": [
      {"measurement": "IC50", "setting": "[1]", "result": 110, "unit": "nM"}
    ]},
    {"smiles": "Cc1noc(C)c1-c1ccc2c(c1)C(OCCO)(C1CCCCC1)C(=O)N2", "note": "(stereo not given)", "values": [
      {"measurement": "IC50", "setting": "[1]", "result": 82, "unit": "nM"}
    ]},
    {"smiles": "C=CCCC1(O)C(=O)Nc2ccc(-c3c(C)noc3C)cc21", "note": "(stereo not given)", "values": [
      {"measurement": "IC50", "setting": "[1]", "result": 430, "unit": "nM"}
    ]},
    {"smiles": "Cc1noc(C)c1-c1ccc2c(c1)C(O)(C1CCCCCC1)C(=O)N2", "note": "(stereo not given)", "values": [
      {"measurement": "IC50", "setting": "[1]", "result": 98, "unit": "nM"}
    ]},
    {"smiles": "C=CCCCC1(O)C(=O)Nc2ccc(-c3c(C)noc3C)cc21", "note": "(stereo not given)", "values": [
      {"measurement": "IC50", "setting": "[1]", "result": 540, "unit": "nM"}
    ]},
    {"smiles": "Cc1noc(C)c1-c1ccc2c(c1)C(C1CCCC1)(N1CCN(C)CC1)C(=O)N2", "note": "(stereo not given)", "values": [
      {"measurement": "IC50", "setting": "[1]", "result": 180, "unit": "nM"}
    ]},
    {"smiles": "Cc1noc(C)c1-c1ccc2c(c1)C(N)(c1ccccc1)C(=O)N2", "note": "(single isomer, unassigned)", "values": [
      {"measurement": "IC50", "setting": "[2]", "result": 35, "unit": "nM"},
      {"measurement": "IC50", "setting": "[1]", "result": 150, "unit": "nM"},
      {"measurement": "IC50", "setting": "[3]", "result": 55, "unit": "nM"},
      {"measurement": "IC50", "setting": "[4]", "result": 95, "unit": "nM"}
    ]}
  ]
}
